What was measured:
Test in all cases: Test F pre-/postemergence plant response
Type in all cases: in vivo
Conditions in all cases: scale 0 to 100
[1] = tested on: field bindweed (Convolvulus arvensis)
In short: (§1)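 Two application timings were run side by side: soil surface treatment of freshly planted seed in silt loam, and foliar treatment of seedlings 2 to 18 cm high. Plants stayed in the greenhouse 14 to 21 days before visual 0–100 injury scoring against controls.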

[2] = tested on: sandbur (southern sandbur, Cenchrus echinatus)
In short: as §1

[3] = tested on: fall panicum (Panicum dichotomiflorum)
In short: as §1

soybean (Glycine max) = tested on: soybean (Glycine max)
In short: as §1

[4] = tested on: green foxtail (Setaria viridis)
In short: as §1

[5] = tested on: waterhemp (common waterhemp, Amaranthus rudis)
In short: as §1

[6] = tested on: johnsongrass (Sorghum halepense)
In short: as §1

[7] = tested on: dayflower (Virginia (VA) dayflower, Commelina virginica)
In short: as §1

[8] = tested on: palmer pigweed (Amaranthus palmeri)
In short: as §1

[9] = tested on: lambsquarters (Chenopodium album)
In short: as §1

corn (Zea mays) = tested on: corn (Zea mays)
In short: as §1

[10] = tested on: wild poinsettia (Euphorbia heterophylla)
In short: as §1

[11] = tested on: morningglory (Ipomoea coccinea)
In short: as §1

[12] = tested on: goosegrass (Eleusine indica)
In short: as §1

[13] = tested on: Brazilian crabgrass (Digitaria horizontalis)
In short: as §1

[14] = tested on: giant foxtail (Setaria faberii)
In short: as §1

Structure (SMILES): FC(F)c1cc(-c2c(Cl)cccc2Oc2ncc(Cl)cn2)no1 [Compound 179]
- Plant response rating, Field Bindweed ([1]; 16 g ai/ha Postemergence): 15
- Plant response rating, Field Bindweed ([1]; 16 g ai/ha Preemergence): 0
- Plant response rating, Field Bindweed ([1]; 31 g ai/ha Postemergence): 25
- Plant response rating, Field Bindweed ([1]; 31 g ai/ha Preemergence): 0
- Plant response rating, Field Bindweed ([1]; 62 g ai/ha Postemergence): 35
- Plant response rating, Field Bindweed ([1]; 62 g ai/ha Preemergence): 0
- Plant response rating, Field Bindweed ([1]; 125 g ai/ha Postemergence): 50
- Plant response rating, Field Bindweed ([1]; 125 g ai/ha Preemergence): 0
- Plant response rating, Sandbur ([2]; 16 g ai/ha Postemergence): 0
- Plant response rating, Sandbur ([2]; 16 g ai/ha Preemergence): 0
- Plant response rating, Sandbur ([2]; 31 g ai/ha Postemergence): 0
- Plant response rating, Sandbur ([2]; 31 g ai/ha Preemergence): 0
- Plant response rating, Sandbur ([2]; 62 g ai/ha Postemergence): 5
- Plant response rating, Sandbur ([2]; 125 g ai/ha Postemergence): 10
- Plant response rating, Sandbur ([2]; 125 g ai/ha Preemergence): 0
- Plant response rating, Sandbur ([2]; Preemergence): 0
- Plant response rating, Panicum, Fall ([3]; 16 g ai/ha Postemergence): 15
- Plant response rating, Panicum, Fall ([3]; 16 g ai/ha Preemergence): 0
- Plant response rating, Panicum, Fall ([3]; 31 g ai/ha Postemergence): 10
- Plant response rating, Panicum, Fall ([3]; 31 g ai/ha Preemergence): 0
- Plant response rating, Panicum, Fall ([3]; 62 g ai/ha Postemergence): 15
- Plant response rating, Panicum, Fall ([3]; 125 g ai/ha Postemergence): 10
- Plant response rating, Panicum, Fall ([3]; 125 g ai/ha Preemergence): 75
- Plant response rating, Panicum, Fall ([3]; Preemergence): 50
- Plant response rating, Soybean (soybean (Glycine max); 16 g ai/ha Postemergence): 60
- Plant response rating, Soybean (soybean (Glycine max); 16 g ai/ha Preemergence): 0
- Plant response rating, Soybean (soybean (Glycine max); 31 g ai/ha Postemergence): 50
- Plant response rating, Soybean (soybean (Glycine max); 31 g ai/ha Preemergence): 0
- Plant response rating, Soybean (soybean (Glycine max); 62 g ai/ha Postemergence): 75
- Plant response rating, Soybean (soybean (Glycine max); 125 g ai/ha Postemergence): 90
- Plant response rating, Soybean (soybean (Glycine max); 125 g ai/ha Preemergence): 35
- Plant response rating, Soybean (soybean (Glycine max); Preemergence): 0
- Plant response rating, Foxtail, Green ([4]; 16 g ai/ha Preemergence): 0
- Plant response rating, Foxtail, Green ([4]; 31 g ai/ha Preemergence): 0
- Plant response rating, Foxtail, Green ([4]; 125 g ai/ha Preemergence): 15
- Plant response rating, Foxtail, Green ([4]; Preemergence): 0
- Plant response rating, Waterhemp ([5]; 16 g ai/ha Postemergence): 70
- Plant response rating, Waterhemp ([5]; 16 g ai/ha Preemergence): 95
- Plant response rating, Waterhemp ([5]; 31 g ai/ha Postemergence): 95
- Plant response rating, Waterhemp ([5]; 31 g ai/ha Preemergence): 95
- Plant response rating, Waterhemp ([5]; 62 g ai/ha Postemergence): 95
- Plant response rating, Waterhemp ([5]; 125 g ai/ha Postemergence): 100
- Plant response rating, Waterhemp ([5]; 125 g ai/ha Preemergence): 100
- Plant response rating, Waterhemp ([5]; Preemergence): 100
- Plant response rating, Johnsongrass ([6]; 16 g ai/ha Preemergence): 0
- Plant response rating, Johnsongrass ([6]; 31 g ai/ha Preemergence): 0
- Plant response rating, Johnsongrass ([6]; 125 g ai/ha Preemergence): 10
- Plant response rating, Johnsongrass ([6]; Preemergence): 10
- Plant response rating, Dayflower, VA ([7]; 16 g ai/ha Preemergence): 0
- Plant response rating, Dayflower, VA ([7]; 31 g ai/ha Preemergence): 0
- Plant response rating, Dayflower, VA ([7]; 62 g ai/ha Preemergence): 35
- Plant response rating, Dayflower, VA ([7]; 125 g ai/ha Preemergence): 85
- Plant response rating, Pigweed, Palmer ([8]; 16 g ai/ha Postemergence): 70
- Plant response rating, Pigweed, Palmer ([8]; 16 g ai/ha Preemergence): 0
- Plant response rating, Pigweed, Palmer ([8]; 31 g ai/ha Postemergence): 90
- Plant response rating, Pigweed, Palmer ([8]; 31 g ai/ha Preemergence): 0
- Plant response rating, Pigweed, Palmer ([8]; 62 g ai/ha Postemergence): 85
- Plant response rating, Pigweed, Palmer ([8]; 125 g ai/ha Postemergence): 85
- Plant response rating, Pigweed, Palmer ([8]; 125 g ai/ha Preemergence): 65
- Plant response rating, Pigweed, Palmer ([8]; Preemergence): 35
- Plant response rating, Lambsquarters ([9]; 16 g ai/ha Preemergence): 98
- Plant response rating, Lambsquarters ([9]; 31 g ai/ha Preemergence): 100
- Plant response rating, Lambsquarters ([9]; 125 g ai/ha Preemergence): 100
- Plant response rating, Lambsquarters ([9]; Preemergence): 100
- Plant response rating, Corn (corn (Zea mays); 16 g ai/ha Postemergence): 5
- Plant response rating, Corn (corn (Zea mays); 16 g ai/ha Preemergence): 0
- Plant response rating, Corn (corn (Zea mays); 31 g ai/ha Postemergence): 0
- Plant response rating, Corn (corn (Zea mays); 31 g ai/ha Preemergence): 0
- Plant response rating, Corn (corn (Zea mays); 62 g ai/ha Postemergence): 10
- Plant response rating, Corn (corn (Zea mays); 62 g ai/ha Preemergence): 0
- Plant response rating, Corn (corn (Zea mays); 125 g ai/ha Postemergence): 15
- Plant response rating, Corn (corn (Zea mays); 125 g ai/ha Preemergence): 40
- Plant response rating, Poinsettia, Wild ([10]; 16 g ai/ha Postemergence): 15
- Plant response rating, Poinsettia, Wild ([10]; 16 g ai/ha Preemergence): 0
- Plant response rating, Poinsettia, Wild ([10]; 31 g ai/ha Postemergence): 15
- Plant response rating, Poinsettia, Wild ([10]; 31 g ai/ha Preemergence): 0
- Plant response rating, Poinsettia, Wild ([10]; 62 g ai/ha Postemergence): 20
- Plant response rating, Poinsettia, Wild ([10]; 125 g ai/ha Postemergence): 35
- Plant response rating, Poinsettia, Wild ([10]; 125 g ai/ha Preemergence): 0
- Plant response rating, Poinsettia, Wild ([10]; Preemergence): 0
- Plant response rating, Morningglory ([11]; 16 g ai/ha Preemergence): 0
- Plant response rating, Morningglory ([11]; 31 g ai/ha Preemergence): 0
- Plant response rating, Morningglory ([11]; 125 g ai/ha Preemergence): 25
- Plant response rating, Morningglory ([11]; Preemergence): 35
- Plant response rating, Goosegrass ([12]; 16 g ai/ha Preemergence): 0
- Plant response rating, Goosegrass ([12]; 31 g ai/ha Preemergence): 0
- Plant response rating, Goosegrass ([12]; 125 g ai/ha Preemergence): 0
- Plant response rating, Goosegrass ([12]; Preemergence): 0
- Plant response rating, Crabgrass, Brazil ([13]; 16 g ai/ha Postemergence): 10
- Plant response rating, Crabgrass, Brazil ([13]; 16 g ai/ha Preemergence): 0
- Plant response rating, Crabgrass, Brazil ([13]; 31 g ai/ha Postemergence): 20
- Plant response rating, Crabgrass, Brazil ([13]; 31 g ai/ha Preemergence): 0
- Plant response rating, Crabgrass, Brazil ([13]; 62 g ai/ha Postemergence): 20
- Plant response rating, Crabgrass, Brazil ([13]; 62 g ai/ha Preemergence): 15
- Plant response rating, Crabgrass, Brazil ([13]; 125 g ai/ha Postemergence): 30
- Plant response rating, Crabgrass, Brazil ([13]; 125 g ai/ha Preemergence): 25
- Plant response rating, Foxtail, Giant ([14]; 16 g ai/ha Preemergence): 0
- Plant response rating, Foxtail, Giant ([14]; 31 g ai/ha Preemergence): 0
- Plant response rating, Foxtail, Giant ([14]; 62 g ai/ha Preemergence): 30
- Plant response rating, Foxtail, Giant ([14]; 125 g ai/ha Preemergence): 20
